Laboratory results taken from PubChem BioAssay AID1205 (EPA DSSTox, 2008).
Activity calls are given as the source filed them.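 How the source made its calls: active means tumour findings in long-term animal cancer tests in more than one sex, species or organ; inactive means no tumour finding and more than one negative test.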 *1 amine or outer side, *2 acyl side, *3 side chain or, on linkers, in order; H or OH if unused. Where a SMILES comes first, the peptide text is derived from it. Bridges are numbered along the chain shown (N, C = ends). Roman numbers before positions name the chains, in order. [ ]: non-standard residue; d: D form. Actinocin(9to1) = Cc1c2oc3c(C)ccc(C(=O)[*:1])c3nc-2c(C(=O)[*:2])c(N)c1=O; NMeV = CN[C@H](C(=O)O)C(C)C; Sar = CNCC(=O)O

test: DSSTox (CPDBAS) Carcinogenic Potency Database Summary MultiCellCall Results; conditions: animal carcinogenicity bioassays, multi-cell call summary
Method in brief: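 ActivityScore sums 50 for multispecies, 30 for multisex and 20 for multisite positivity. Based on the most positive experiment per sex-species across standardised chronic rodent and other animal cancer tests.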

SMILES	outcome
CCCN(CCC)c1c([N+](=O)[O-])cc(C(F)(F)F)cc1[N+](=O)[O-]	active; multisite active
COP(=S)(OC)SCn1nnc2ccccc2c1=O	inactive; multisex inactive; multispecies inactive
ClCCCl	active; multisite active; multisex active; multispecies active
COc1ccc([C@@H]2CC(=O)c3c(O)cc(O[C@@H]4O[C@H](CO[C@@H]5O[C@@H](C)[C@H](O)[C@@H](O)[C@H]5O)[C@@H](O)[C@H](O)[C@H]4O)cc3O2)cc1OC	inactive; multisex inactive
Clc1ccc(-c2cccc(Cl)c2Cl)c(Cl)c1	active; multisite active; multisex active
Nc1ncn[nH]1	active; multisite active; multisex active; multispecies active
CC1CO1 (configuration not stated)	active; multisite active; multisex active; multispecies active
CN(C)C(=O)Nc1cccc(C(F)(F)F)c1	inactive; multisex inactive; multispecies inactive
C#C[C@]1(O)CC[C@H]2[C@@H]3CCC4=C(CCC(=O)C4)[C@H]3CC[C@@]21C	inactive; multisex inactive
O=[N+]([O-])c1ccccc1	active; multisite active; multisex active; multispecies active
O=C1CN(/N=C/c2ccc([N+](=O)[O-])o2)C(=O)N1	active; multisite active; multisex active; multispecies active
CN1[C@@H]2CC(OC(=O)[C@@H](CO)c3ccccc3)C[C@H]1[C@@H]1O[C@@H]12 (some centres not stated)	inactive; multisex inactive; multispecies inactive
CC(C)[N+](=O)[O-]	inactive; multisex inactive
CNC(=O)O/N=C(\SC)C(=O)N(C)C	inactive; multisex inactive; multispecies inactive
COc1ccc(N)c(C)c1	active; multisex active
O=NN1CCN(N=O)CC1	active; multisex active
OC[C@H]1O[C@@](CO)(O[C@H]2O[C@H](CO)[C@@H](O)[C@H](O)[C@H]2O)[C@@H](O)[C@@H]1O	inactive; multisex inactive
Nc1ccc(Oc2ccc(Cl)cc2)cc1	active; multisite active; multisex active; multispecies active
Cc1cc(C)c(N)cc1C	active; multisite active; multisex active; multispecies active
CCC[CH2][Sn]([CH2]CCC)([CH2]CCC)[O][Sn]([CH2]CCC)([CH2]CCC)[CH2]CCC	inactive; multisex inactive
COC(=O)[C@H]1[C@H]2C[C@@H]3c4[nH]c5cc(OC)ccc5c4CCN3C[C@H]2C[C@@H](OC(=O)c2cc(OC)c(OC)c(OC)c2)[C@@H]1OC	active; multisite active; multisex active; multispecies active
C[C@H](CCC(=O)O)[C@H]1CC[C@H]2[C@@H]3CC[C@@H]4C[C@H](O)CC[C@]4(C)[C@H]3CC[C@]12C	inactive; multisex inactive; multispecies inactive
CC(N)=S	active; multisex active; multispecies active

SMILES	outcome
NNc1ccc(C(=O)O)cc1	active; multisex active
CCCCCCCCCCCCCCN(C)N=O	active; multisite active
F	inactive; multisex inactive; multispecies inactive
O=C1NCCN1/N=C/c1ccc([N+](=O)[O-])o1	active; multisite active
C/[N+]([O-])=N/CO[C@@H]1O[C@H](CO)[C@@H](O)[C@H](O)[C@H]1O	active; multisite active; multispecies active
CC(CCl)OC(C)CCl (configuration not stated)	active; multisite active; multisex active
Cc1ncc([N+](=O)[O-])n1CCO	active; multisite active; multisex active; multispecies active
O=[N+]([O-])O	inactive; multisex inactive
CC/C(=C(/CC)c1ccc(O)cc1)c1ccc(O)cc1	active; multisite active; multisex active; multispecies active
CC(=O)CN(N=O)C(N)=O	active; multisex active
COP(=S)(OC)Oc1ccc([N+](=O)[O-])cc1	inactive; multisex inactive; multispecies inactive
Oc1ccccc1-c1ccccc1	active; multisite active; multisex active
CC(C)NCC(O)c1ccc2ccccc2c1 (configuration not stated)	inactive; multisex inactive
NC(=O)N/N=C/c1ccc([N+](=O)[O-])o1	active; multisite active; multispecies active
O=C1Nc2ccc(Cl)cc2C(c2ccccc2)=NC1O (configuration not stated)	active; multisite active; multisex active
O[C@@H]([C@H](O)[C@@H](O)CBr)[C@@H](O)CBr	active; multisite active; multisex active; multispecies active
O=C(Nc1cccc2c(=O)cc(-c3nn[nH]n3)oc12)c1ccc(OCCCCc2ccccc2)cc1	inactive; multisex inactive
CCCCNNCCCC	active; multisite active; multisex active
O=C/C=C/c1ccccc1	inactive; multisex inactive; multispecies inactive
C=Cc1cccc(C)c1	inactive; multisex inactive; multispecies inactive
C/C=N/N(C)C=O	active; multisite active; multisex active
N#CC(c1ccccc1)c1ccccc1	inactive; multisex inactive
CN(C)CCN(Cc1cccs1)c1ccccc1	inactive; multisex inactive

SMILES	outcome
CC(=O)CN(N=O)C(=O)NCCCl	active; multisex active
O=[N+]([O-])c1cc([N+](=O)[O-])c(Cl)c(Cl)c1Cl	inactive; multisex inactive
COC(=O)c1ccc(C(=O)OC)cc1	inactive; multisex inactive; multispecies inactive
CN1CCCC1=O	active; multisex active
C/C=C1/C[C@@H](C)[C@](O)(CO)C(=O)OCC2=CC[N+]3([O-])CC[C@@H](OC1=O)[C@@H]23 (some centres not stated)	active; multisex active
CO[C@@]12[C@H](COC(N)=O)C3=C(C(=O)C(C)=C(N)C3=O)N1C[C@@H]1N[C@@H]12	active; multisex active
CCCCCN(CCCCC)N=O	active; multisex active
O=C1c2ccccc2CN2C(=O)c3ccccc3CN12	active; multisite active; multisex active
OCC(O)CCl (configuration not stated)	inactive; multisex inactive
CC(C)O	inactive; multisex inactive; multispecies inactive
CC(C)Nc1nc(Cl)nc(NC(C)C)n1	inactive; multisex inactive
S=C([S-])NCCNC(=S)[S-].[Zn+2]	inactive; multisex inactive; multispecies inactive
CN(N=O)c1ccccc1	active; multisex active
CC(C)NCC(O)COc1cccc2ccccc12 (configuration not stated)	inactive; multisex inactive; multispecies inactive
BrCCBr	active; multisite active; multisex active; multispecies active
CC(Cc1ccccc1)NN (configuration not stated)	inactive; multisex inactive
Oc1ccc(OCc2ccccc2)cc1	inactive; multisex inactive
COc1cc2c(c3oc4cccc(O)c4c(=O)c13)C1C=COC1O2 (configuration not stated)	active; multisite active; multisex active; multispecies active
CCCCN(CCCCO)N=O	active; multisite active; multisex active
O=[N+]([O-])c1ccc(-c2cnc3ccccn23)o1	active; multisite active; multisex active; multispecies active
C=CCCl	inactive; multisex inactive
CC(C)(CO)CCCCCCC(C)(C)CO	inactive; multisex inactive
O=NN1CCC(=O)NC1=O	active; multisex active

SMILES	outcome
CN1C(=O)C[C@@H](C(=O)N[C@@H](Cc2cnc[nH]2)C(=O)N2CCC[C@H]2C(N)=O)NC1=O	inactive; multisex inactive; multispecies inactive
COc1ccc(N)c(OC)c1	inactive; multisex inactive; multispecies inactive
Nc1ccc(Oc2ccc(N)cc2)cc1	active; multisite active; multisex active; multispecies active
CNC[C@H](O)c1cccc(O)c1	inactive; multisex inactive; multispecies inactive
CN(N=O)C(=O)N[C@@H]1[C@@H](O)[C@H](O)[C@@H](CO)O[C@@H]1O	active; multisite active; multisex active; multispecies active
CCNC(=O)N(CCN(C)C)N=O	active; multisite active
Cc1ccccc1	active; multisite active; multisex active
C=C(C)C(=O)OC	inactive; multisex inactive; multispecies inactive
O=[N+]([O-])c1ccc(-c2nc(N(CCO)CCO)c3ccccc3n2)s1	active; multisite active
CC(CN1c2ccccc2Sc2ccccc21)N(C)C (configuration not stated)	inactive; multisex inactive; multispecies inactive
OC[C@@H](O)[C@@H](O)[C@H](O)[C@H](O)CO[C@H]1O[C@H](CO)[C@@H](O)[C@H](O)[C@H]1O	inactive; multisex inactive
CC(Cl)CCl (configuration not stated)	active; multisex active
Cc1cc2ncccc2c2nc(N)n(C)c12	active; multisite active; multisex active
O=NN1C[C@H](O)C[C@H]1C(=O)O	inactive; multisex inactive
C=CCN(CCO)N=O	active; multisite active
O=C(O)CCCc1ccc(N(CCCl)CCCl)cc1	active; multisite active; multisex active; multispecies active
CCN(N=O)C(=O)NCCO	active; multisite active; multisex active; multispecies active
C[C@]12C=CC(=O)C=C1CC[C@@H]1[C@@H]2C(=O)C[C@@]2(C)[C@H]1CC[C@]2(O)C(=O)CO	inactive; multisex inactive
COc1cc2c(c3oc(=O)c4c(c13)CCC4=O)C1C=COC1O2 (configuration not stated)	active; multisite active; multisex active; multispecies active
[O-][Cl+]O	inactive; multisex inactive; multispecies inactive
CNC(=O)CSP(=S)(OC)OC	inactive; multisex inactive; multispecies inactive
Cc1c2oc3c(C)ccc(C(=O)N[C@@H]4C(=O)N[C@H](C(C)C)C(=O)N5CCC[C@H]5C(=O)N(C)CC(=O)N(C)[C@@H](C(C)C)C(=O)O[C@@H]4C)c3nc-2c(C(=O)N[C@@H]2C(=O)N[C@H](C(C)C)C(=O)N3CCC[C@H]3C(=O)N(C)CC(=O)N(C)[C@@H](C(C)C)C(=O)O[C@@H]2C)c(N)c1=O (I: T[dV]P[Sar][NMeV] / II: T[dV]P[Sar][NMeV]; ester I:1-I:C, II:1-II:C; linker I:N-II:N via Actinocin(9to1))	active; multisex active
O=S(=O)([O-])[O-].[Cd+2]	active; multisex active
